Test results from US9296691B2, “Inhibitors of p75 receptor and their uses” (Horacio Uri Saragovi, priority 2010, dated 2016).

Target: T1, TrkA-Fc (Homo sapiens, UniProt P04629)
T1 construct: purchased R&D
Assay: Competitive ELISA, TrkA-Fc binding to immobilized NGF (selectivity control)
Protocol: The effect of compounds I-B and LM-24 on the binding between NGF and p75 was tested in competitive ELISA assays, where the antagonists prevent soluble p75 from binding to immobilized NGF. The selectivity of antagonism was evaluated by lack of effect upon NGF-TrkA or lack of effect between NGF and anti-NGF monoclonal antibody (mAb) NGF30 interactions (FIG. 1A).
Competitive ELISAs were performed as described (Saragovi et al., 1998). The procedure immobilized 50 ng/well NGF, or pro-NGF (Alomone Labs, Israel) onto polystyrene 96-well microtest plates, with washing and blocking with binding buffer (BB; phosphate buffered saline containing 0.5% bovine serum albumin). The following primary reagents in BB were added: recombinant chimeric p75-Fc or recombinant chimeric TrkA-Fc (R&D), or anti-NGF mAb NGF30 (Saragovi et al., 1998); each at 50 nM. The competitors I-B and the other test compounds (or control LM-24) were added at the indicated concentrations, and the plates were incubated for 45 minutes. After washing 3× in BB, HRP-conjugated secondary reagents (Sigma) were added for 30 min (goat anti-human Fc for p75-Fc and for TrkA-Fc; and goat anti-rat Ab for NGF30 mAb), and then wells were washed 3× in BB and 1× in PBS. Peroxidase activity was determined colorimetrically using the substrate TMB One Solution (Promega). The reaction was stopped with 0.5 N H2SO4 and the plates were read at 450 nm (Benchmark Plus, Bio-Rad). Assays were repeated n>4 times, with replicates of 4 wells each assay. […] Wells with no NGF immobilized but with all other reagents added were treated as background (<15% of maximal signals) and standardized to 0% binding.

T1 sequence (P04629 33-423 limits assumed): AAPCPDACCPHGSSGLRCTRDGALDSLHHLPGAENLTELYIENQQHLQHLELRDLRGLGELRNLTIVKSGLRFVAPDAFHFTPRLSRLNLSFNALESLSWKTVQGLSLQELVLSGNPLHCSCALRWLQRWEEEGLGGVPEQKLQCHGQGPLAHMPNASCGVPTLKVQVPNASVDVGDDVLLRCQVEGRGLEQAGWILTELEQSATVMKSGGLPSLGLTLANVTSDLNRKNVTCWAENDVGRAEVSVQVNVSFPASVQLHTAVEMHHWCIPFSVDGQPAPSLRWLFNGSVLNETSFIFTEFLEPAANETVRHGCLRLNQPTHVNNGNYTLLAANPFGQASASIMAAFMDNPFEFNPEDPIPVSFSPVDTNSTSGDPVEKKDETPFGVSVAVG

For `CC(C)NC(=O)N(C(=O)Cn1cnc2c1c(=O)n(C)c(=O)n2C)C(C)C` [I-B, 1,3-Diisopropyl-1-[2-(1,3-dimethyl-2,6-dioxo-1,2,3,6-tetrahydro-purin-7-yl)-acetyl]-urea], the “TrkA-Fc binding AVERAGE” value (binding to immobilized NGF, no cpd = 100%, TrkA-Fc 50 nM, as described for FIG. 1A) was 107% and the “effect on binding of TrkA to NGF” value (competitive ELISA, FIG. 1A, compound at 30 μM) was “did not interfere”.
